We go through 34 molecules from patent US6727263B2, “Indole and 2,3-dihydroindole derivatives, their preparation and use” (H. Lundbeck A/S, priority 1997, dated 2004).

Structures can show the parent of a compound that is named as a salt. Where two headings read alike, the source gives them in different places.

One data set has as its target T1, human 5-HT1A receptors (Homo sapiens, UniProt P08908).
T1 construct: expressed in transfected cells; host or cells: HeLa cells (HA7), used as cell homogenate
T1 sequence (P08908 1-422): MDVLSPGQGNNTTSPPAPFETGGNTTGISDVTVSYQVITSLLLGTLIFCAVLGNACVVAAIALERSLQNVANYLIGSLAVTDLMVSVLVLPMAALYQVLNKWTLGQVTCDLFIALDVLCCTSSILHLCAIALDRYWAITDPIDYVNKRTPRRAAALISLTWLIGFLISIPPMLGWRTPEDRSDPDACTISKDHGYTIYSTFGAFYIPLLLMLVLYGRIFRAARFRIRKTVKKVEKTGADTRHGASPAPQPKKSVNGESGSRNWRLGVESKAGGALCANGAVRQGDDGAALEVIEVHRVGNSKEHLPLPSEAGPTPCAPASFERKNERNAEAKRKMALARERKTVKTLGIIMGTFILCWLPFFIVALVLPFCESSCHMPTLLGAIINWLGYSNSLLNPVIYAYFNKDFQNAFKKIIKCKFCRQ
The experiment in a line: Inhibition of 3H-5-CT binding to human 5-HT1A receptors. The protocol: Inhibition of ^3H-5-CT Binding to Human 5-HT1A Receptors
Human 5-HT1A receptors (40 μg of cell homogenate) were incubated for 15 minutes at 37° C. in 50 mM Tris buffer at pH 7.7 in the presence of ^3H-5-CT. Non-specific binding was determined by including 10 μM of metergoline. The reaction was terminated by rapid filtration through Unifilter GF/B filters on a Tomtec Cell Harvester. Filters were counted in a Packard Top Counter.

The test system of data set [1] is 3H-5-HT uptake into whole rat brain synaptosomes. The experiment in a line: Inhibition of 3H-5-HT uptake into rat brain synaptosomes. Type of data set: biochemical. The conditions noted are these: 3H-5-HT accumulation into whole rat brain synaptosomes, in vitro; read-out: Inhibition of serotonin reuptake IC50. The protocol: Inhibition of ^3H-5-HT Uptake Into Rat Brain Synaptosomes
Using this method the ability of drugs to inhibit the accumulation of ^3H-5-HT into whole rat brain synaptosomes is determined in vitro.

The target of the next data set is T2, cloned 5-HT1A receptors (Homo sapiens, UniProt P08908).
T2 construct: expressed in transfected cells; host or cells: HeLa cells (HA7)
T2 sequence (P08908 1-422): T1 sequence (P08908 1-422)
The experiment in a line: Antagonism of 5-HT induced inhibition of forskolin induced cAMP accumulation. Type of data set: cell-based. The conditions noted are these: cloned 5-HT1A receptors in transfected HeLa cells (HA7). The protocol:
The assay was performed as a modification of the method described by Pauwels, P. J et al, Biochem. Pharmacol. 1993, 45, 375.
Background: Changes in cAMP serve as a functional read-out for many G protein-coupled receptors.

The mark [2] stands for this setting: read-out: Inhibition of 3H-5-CT binding IC50, cloned human 5-HT1A receptors expressed in transfected HeLa cells (HA7), cell homogenate, 15 minutes at 37° C., pH 7.7.

Usually melting point stands for the temperature of the solid-liquid transition. Take `Fc1ccc2[nH]cc(CCN3CCC(c4cccc5ccoc45)CC3)c2c1.O=C(O)C(=O)O`: the melting point lay in the range of 191 to 194 °C.
For the molecule `Brc1ccc2[nH]cc(CCN3CCC(c4cccc5ccoc45)CC3)c2c1.O=C(O)C(=O)O`, the melting point was in the range of 153 to 157 °C.
`Fc1ccc2[nH]cc(CCN3CCN(c4cccc5c4OCC5)CC3)c2c1.O=C(O)C(=O)O` showed a melting point of 145 to 149 °C.
Still for that read-out and setting: to `Clc1ccc2[nH]cc(CCN3CCN(c4cccc5ccsc45)CC3)c2c1.O=C(O)C(=O)O` belongs 175.2 to 176.6 °C; to `Clc1ccc2[nH]cc(CCN3CCN(c4cccc5c4SCC=C5)CC3)c2c1`, 152 to 153 °C; to `Brc1ccc2[nH]cc(CCN3CCN(c4cccc5c4SCC=C5)CC3)c2c1`, 166 to 167 °C.
`Brc1ccc2[nH]cc(CCN3CC=C(c4cccc5ccoc45)CC3)c2c1.O=C(O)C(=O)O` yielded a melting point of 185 to 194 °C.
Same read-out and setting: to `CC1(C)Cc2cccc(N3CCN(CCc4c[nH]c5cc(Cl)ccc45)CC3)c2O1.O=C(O)/C=C/C(=O)O` belongs 165 to 167 °C; to `Clc1ccc2ccn(CCN3CCN(c4cccc5c4OCCO5)CC3)c2c1.O=C(O)C(=O)O`, 234 to 235 °C; to `Clc1ccc2c(ccn2CCN2CCN(c3cccc4c3OCCO4)CC2)c1.O=C(O)C(=O)O`, 234 to 235 °C.
On the same count and under the same terms, to `Fc1ccc2c(ccn2CCN2CCN(c3cccc4c3OCCO4)CC2)c1.O=C(O)C(=O)O` belongs 230 to 231 °C; to `O=C(O)C(=O)O.c1cc2c(c(N3CCN(CCn4ccc5ccccc54)CC3)c1)OCCO2`, 225 to 229 °C.
On the same count and under the same terms, to `O=C(O)C(=O)O.c1cc2c(c(N3CCN(CCn4ccc5ccccc54)CC3)c1)OCC2` belongs 223 to 226 °C; to `Clc1ccc2c(c1)C(CCN1CCN(c3cccc4c3OCCO4)CC1)CN2.O=C(O)C(=O)O` (stereo not drawn), 153 to 157 °C; to `C=CCn1cc(CCN2CCN(c3cccc4c3OCCO4)CC2)c2ccccc21.O=C(O)C(=O)O`, 187 to 190 °C.
The molecule `C#CCn1cc(CCN2CCN(c3cccc4c3OCCO4)CC2)c2ccccc21.O=C(O)C(=O)O` yielded a melting point of 168 to 172 °C.
Consider `O=C(O)C(=O)O.c1ccc(CN2CC(CCN3CCN(c4cccc5c4OCCO5)CC3)c3ccccc32)cc1` (stereo not drawn), for which the melting point was in the range of 158 to 165 °C.
On the same count and under the same terms, with `C=CCN1CC(CCN2CCN(c3cccc4c3OCCO4)CC2)c2ccccc21.O=C(O)C(=O)O` (stereo not drawn) the figure was 133 to 136 °C.
Broadly, the IC50 is the concentration at which inhibition is half-maximal. “3-[2-[4-(1,4-Benzodioxan-5-yl)Piperazin-1-yl]Ethyl]-6-Chloro-1H-Indole Hemifumarate [Compound 3a]”: the IC50 at human 5-HT1A receptors (setting [2]) came out at 1.2 nM; in data set [1], 5.3 nM; on cloned 5-HT1A receptors it was 500 nM.
Regarding `CC1(C)Cc2cccc(C3CCN(CCc4c[nH]c5cc(Cl)ccc45)CC3)c2O1` (as salt: oxalate) [Compound 1f, 6-Chloro-3-[2-[4-(2,2, -dimethyl-2,3-dihydrobenzofuran-7-yl)piperidin-1-yl]ethyl]-1H-indole oxalate], the melting point fell in the range of 190 to 193 °C.
Still for that read-out and setting: with `CC1(C)Cc2cccc(C3=CCN(CCc4c[nH]c5cc(Cl)ccc45)CC3)c2O1` (as salt: oxalate) [Compound 1g, 6-Chloro-3-[2-[4-(2,2,-dimethyl-2,3,-dihydrohydrobenzofuran-7-yl)-1,2,3,6-tetrahydro-1-pyridyl]ethyl]-1H-indole oxalate] the figure was 200 to 204 °C.
Still for that read-out and setting: to `COc1ccc2[nH]cc(CCN3CCN(c4cccc5c4OCCO5)CC3)c2c1` (as salt: oxalate) [Compound 1i, 3-[2-[4-(1,4-Benzodioxan-5-yl)piperazin-1-y]ethyl]-5-methoxy-1H-indole hemioxalate] belongs 189 to 196 °C.
`Cc1[nH]c2ccccc2c1CCN1CCN(c2cccc3c2OCCO3)CC1.O=C(O)C(=O)O` [Compound 1c, 3-[2-[4-(1,4-Benzodioxan-5-yl)piperazin-1-yl]ethyl]-2-methyl-1H-indole oxalate] returned a melting point of 205 to 208 °C. Further, at human 5-HT1A receptors, the IC50 was 2.5 nM. For the same molecule, the IC50 in data set [1] turned out to be 45 nM.
The matching figures for `Cc1cc2c(c(C3CCN(CCc4c[nH]c5cc(Cl)ccc45)CC3)c1)OC(C)(C)C2.O=C(O)/C=C/C(=O)O` [Compound 1d, 6-Chloro-3-[2-[4-(2,2,5-trimethyl-2,3-dihydrobenzofuran-7-yl)piperidin-1-yl]ethyl]-1H-indole fumarate]: 232 to 237 °C, 55 nM and 36 nM.
The matching figures for `Clc1cc2c(c(N3CCN(CCc4c[nH]c5cc(Cl)ccc45)CC3)c1)OCCO2.O=C(O)C(=O)O` [Compound 1l, 6-Chloro-3-[2-[4-(7-chloro-1,4-benzodioxan-5-yl)piperazin-1-yl]ethyl]-1H-indole oxalate]: 237 to 238 °C, 12 nM and 7.7 nM.
`Clc1ccc2c(CCN3CCN(c4c(Cl)ccc5c4OCCO5)CC3)c[nH]c2c1.O=C(O)C(=O)O` [Compound 1m, 6-Chloro-3-[2-[4-(6-Chloro-1,4-benzodioxan-5-yl)piperazin-1-yl]ethyl]-1H-indole oxalate] came in with a melting point of 216 to 217 °C. Moreover, on human 5-HT1A receptors, the IC50 amounted to 99 nM. Further, the IC50 in data set [1] is 57 nM.
Take `Clc1ccc2c(CCN3CCN(c4cccc5c4OCC5)CC3)c[nH]c2c1.O=C(O)C(=O)O` [Compound 1o, 6-Chloro-3-[2-[4-(2,3-dihydrobenzofuran-7-yl)piperazin-1-yl]ethyl]-1H-indole oxalate]: the melting point is 205 to 207 °C. In addition, on cloned 5-HT1A receptors, the IC50 is 3200 nM.
With `Clc1ccc2c(CCN3CCN(c4cccc5c4SCC=C5)CC3)c[nH]c2c1` [Compound 1t], the melting point was in the range of 178 to 179 °C.
Regarding `Clc1ccc2c(CCN3CCN(c4cccc5c4SCCC5)CC3)c[nH]c2c1` [Compound 1t], the IC50 against cloned 5-HT1A receptors amounted to 5900 nM.
`Clc1ccc2c(CCN3CCN(c4cccc5ccoc45)CC3)c[nH]c2c1` [Compound 1u, 3-[2-[4-(Benzofuran-7-yl)piperazin-1-yl]ethyl]-6-chloro-1H-indole]: the melting point is 202 to 204 °C. Besides, at cloned 5-HT1A receptors, the IC50 was found to be 2000 nM.
The corresponding values for `Clc1ccc2c(CCN3CC=C(c4cccc5c4OCC5)CC3)c[nH]c2c1.O=C(O)C(=O)O` [Compound 1x, 6-Chloro-3-[2-[4-(2,3-dihydrobenzofuran-7-yl)-1,2,3,6-tetrahydropyridin-1-yl]ethyl]-1H-indole oxalate] are 211 to 214 °C and 3000 nM.
In the case of `CC1(C)Cc2cc(Cl)cc(N3CCN(CCc4c[nH]c5ccccc45)CC3)c2O1` [Compound 3b, 3-[2-[4-(5-Chloro-2,2-dimethyl-2,3-dihydrobenzofuran-7-yl)piperazin-1-yl]ethyl]-1H-indole hemifumarate], the IC50 on human 5-HT1A receptors (setting [2]) worked out at 3.6 nM; in data set [1], 8.3 nM.
Regarding `CC1(C)COc2c(N3CCN(CCc4c[nH]c5cc(Cl)ccc45)CC3)cc(Cl)cc21` [Compound 3c, 6-Chloro-3-[2-[4-(5-chloro-3,3-dimethyl-2,3-dihydrobenzofuran-7-yl)piperazin-1-yl]ethyl]-1H-indole hemifumarate], inhibition at cloned 5-HT1A receptors was half-maximal at 2600 nM (IC50).
Same read-out and setting: to `CN1CC(CCN2CCN(c3cccc4c3OCCO4)CC2)c2ccccc21` (stereo not drawn) [Compound 6a, 3-[2-[4-(1,4-Benzodioxan-5-yl)Piperazin-1-yl]Ethyl]-2,3-Dihydro-1-Methyl-1H-Indole Oxalate] belongs 100 nM.
